The structures appear in SMILES notation.

Data set [1] concerns Colo205 human colonic adenocarcinoma cell line (doxorubicin-sensitive). In words: MTT cytotoxicity assay on Colo205 cells. Type of data set: cell-based. As to the method:
The cytotoxic activity of selected halido (1–4Cl, and 3Br with chlorido and bromido coligand, respectively) and aqua (1–4Aq) complexes was evaluated in the drug-sensitive Colo205 and its resistant counterpart Colo320 human colonic adenocarcinoma cell lines using the colorimetric 3-(4,5-dimethylthiazol-2-yl)-2,5-diphenyl-tetrazolium bromide (MTT) assay. For comparison, fac-[Re(CO)3(bpy)(Cl)] (in which bpy denotes 2,2′-bipyridine) was also tested, and doxorubicin was used as a positive control. […] The aqua complexes (1–4Aq) were characterized by even higher IC50 values (>100 μM). The somewhat higher cytotoxic activity of the halido complexes might be the result of their kinetic inertness compared to aqua derivatives, based on the previous solution chemical studies. […]
(§1) The tested compounds were dissolved in DMSO or 20% (v/v) DMSO/H2O mixture to prepare 5 mM stock solutions, which were diluted in complete culture medium, to study the effect of compounds on the cell growth of human colonic adenocarcinoma cell lines (doxorubicin-sensitive Colo205 and resistant Colo320 colonic adenocarcinoma cells). […] Cell growth was determined by measuring the optical density (OD) at 540/630 nm with a Multiscan EX ELISA reader (Thermo Labsystems, Cheshire, WA, USA). […]
(Tetrazolium dyes change colour on reduction, which living cells bring about.)

The subject of data set [2] is Colo320/MDR-LRP resistant human colonic adenocarcinoma cell line. In words: MTT cytotoxicity assay on Colo320 cells. The class given is cell-based. Conditions: for IC50: MTT, incubation time 72 h. As to the method: The cytotoxic activity of selected halido (1–4Cl, and 3Br with chlorido and bromido coligand, respectively) and aqua (1–4Aq) complexes was evaluated in the drug-sensitive Colo205 and its resistant counterpart Colo320 human colonic adenocarcinoma cell lines using the colorimetric 3-(4,5-dimethylthiazol-2-yl)-2,5-diphenyl-tetrazolium bromide (MTT) assay. For comparison, fac-[Re(CO)3(bpy)(Cl)] (in which bpy denotes 2,2′-bipyridine) was also tested, and doxorubicin was used as a positive control. […] The aqua complexes (1–4Aq) were characterized by even higher IC50 values (>100 μM). The somewhat higher cytotoxic activity of the halido complexes might be the result of their kinetic inertness compared to aqua derivatives, based on the previous solution chemical studies.
Doxorubicin-sensitive Colo205 (ATCC-CCL-222) and ABCB1 (MDR1)-LRP-expressing resistant Colo320/MDR-LRP (ATCC-CCL-220.1) human colonic adenocarcinoma cell lines were purchased from LGC Promochem (Teddington, UK). The cells were cultured in RPMI 1640 medium supplemented with 10% heat-inactivated fetal bovine serum, 2 mM L-glutamine, 1 mM Na-pyruvate, and 10 mM 4-(2-hydroxyethyl)-1-piperazineethanesulfonic acid (HEPES, Sigma, Steinheim, Germany). Cell lines were incubated at 37 °C in a 5% CO2, 95% air atmosphere. The semiadherent human colon cancer cells were detached with Trypsin-Versene (EDTA, Sigma, Steinheim, Germany) solution for 5 min at 37 °C.
as §1, with “cells). Doxorubicin (Merck, Darmstadt, Germany) was used as a positive control. The cells were treated with Trypsin-Versene (EDTA) solution.” for “cells).”

Data set [3] relates to Vero cells. The data set can be described thus: MTT assay on Vero cells, maximum non-toxic concentration. The class given is cell-based, African green monkey. To be noted: incubation 24 h. As for the experimental part:
Selected compounds (1–4Aq, 1–4Cl, and 3Br) and the reference complex fac-[Re(CO)3(bpy)(Cl)] were tested for their antiviral activity against Herpes simplex virus 2 (HSV-2), which is a double-stranded DNA virus that infects mammals, including humans.[29] The antiviral activity of complexes against HSV-2 was investigated by using Vero cells (originally isolated from kidney epithelial cells of an African green monkey) to host the growing viruses.
Vero cells (ATCC) were placed into the 96-well plate (Sarstedt, Nümbrecht, Germany) at a density of 4 × 10^6 cells/plate. The cells at a density of 4 × 10^4 cells per well were in 100 μL of minimal essential medium (MEM) (Sigma; USA) with Earle salts supplemented with 25 μg/mL gentamicin, 10% heat-inactivated fetal bovine serum (FBS) (Gibco; Germany), 8 mM HEPES, 2 mM L-glutamine, 1× nonessential amino acids, and 1 μg/mL fungisone. The cells were incubated for 60 min at room temperature (RT) to avoid the edge effect and then for 24 h at 37 °C, 5% CO2 that secure a 90% confluent cell layer.[44]
MTT assay was used to determine the maximum non-toxic concentration of the complexes on Vero cells. […] Next day the absorbance of the wells was determined by a microtiter plate reader (Labsystems Multiskan Ex 355, Thermo Fisher Scientific, Waltham, MA USA). The absorbance of the formazan product was measured at 540 nm.[45]

As usually defined, the IC50 is the point on the concentration scale where inhibition reaches its midpoint. Read a high IC50 as a need for much substance. With `COc1cccc2c1C(=O)c1c(O)c3c(c(O)c1C2=O)C[C@@](O)(C(=O)CO)C[C@@H]3O[C@H]1C[C@H](N)[C@H](O)[C@H](C)O1` [doxorubicin, reference compound], the IC50 in data set [1] (Homo sapiens, COLO 205, incubation time 72 h) was determined as 0.58 ± 0.06 µM; in data set [2] (Homo sapiens, COLO 320) it was 3.13 ± 0.29 µM.
Turning to `[C-]#[O+].[C-]#[O+].[C-]#[O+].[Cl][Re-2]1[n+]2ccccc2-c2cccc[n+]21` [fac-[Re(CO)3(bpy)(Cl)], reference compound], the values for the IC50 in data set [1] (incubation time 72 h) and in data set [2] were 25.2 ± 1.1 µM and 49.1 ± 1.7 µM, respectively. In addition, the “RF (resistance factor = IC50(Colo320)/IC50(Colo205))” value in data set [2] (72 h) is on record as 1.95. The maximum nontoxic concentration in data set [3] stood at 25 µM.

Source of the values: publication PMC11541514, “Structural and Solution Speciation Studies on fac-Tricarbonylrhenium(I) Complexes of 2,2′-Bipyridine Analogues” (ACS Omega, 2024).
